Experimental findings from patent US20070009503A1, “Antibiotic, Compositions Containing the Antibiotic, and Methods for Administering the Antibiotic and/or Said Compositions to Livestock” (priority 2004, published 2007) are described below.

The assay has as its system Lactobacillus sakei JCM1157. Put plainly: Growth inhibition zones on MRS agar plates containing protease Umamizyme G, overlaid with indicator strain. The format is cell-based. The following applies: Example 2, protease 0 U/mL. On the procedure:
The lactic acid bacterium Weissella sp. AJ110263 (FERM P-19577), isolated from fermented milk matsoon, and the lactic acid bacteria Pediococcus pentosaceus JCM5885, Pediococcus pentosaceus JCM5890, Lactobacillus plantarum JCM1149, and Lactobacillus salivarius JCM1231, obtained from type cultures, were precultured and cultured on MRS liquid medium (Table 1 above). The culture temperature was 30° C. for Weissella sp. and 37° C. for the other strains. The above lactic acid bacteria were inoculated onto and cultured for 24 hours on MRS agar medium plates to which “Umamizyme G”, a protease derived from Aspergillus, had been added in quantities of 0 U/mL (none added), 200 U/ML, and 400 U/mL. In culturing, 100 mL of MRS medium was added to a 500 mL Sakaguchi flask, […] was inoculated, and the medium was shaken 100 times/min.
These plates were cultured for 24 hours at 30° C., resulting in the formation of growth inhibition zones in the indicator strains (Table 10 below).
Lactococcus lactis NCD0497 (a bacterium producing nisin A) and Lactococcus lactis NCIMB702054 (a bacterium producing nisin Z) were separately cultured in MRS liquid medium at 30° C. In the same manner as in Example 1, antibiotic evaluation was conducted using Lactobacillus sakei strain JCM1157 as an indicator strain. […]

Where no end group is shown, it is not given here.

Consider “Nisin A: nisin A 1,000 IU/mL solution made by ICN Biomedical, spotted without bacterial strains (ITSISLCTPGCKTGALMGCNMKTATCHCSIHVSK; also: lantibiotic, lanthionine bridges and dehydro residues not placed; UniProt P13068 24-57, looked up)”, for which the “diameters of the proliferation inhibition zones” value amounted to 30.
